Experimental data: US7928063B2, “Analogs of human growth hormone-releasing hormone, their preparation and use” (Instytut Farmaceutyczny, priority 2001, dated 2011)
Where two headings read alike, the source gives them in different places. Square brackets hold non-standard residues; d marks the D form. Peptide text beside a SMILES is read from it. * marks the point of attachment. Desaminotyrosyl = O=C(CCc1ccc(O)cc1)*; hArg = N=C(N)NCCCC[C@H](N)C(=O)O; Agb = N=C(N)NCC[C@H](N)C(=O)O; Agp = N=C(N)NC[C@H](N)C(=O)O; Nle = CCCC[C@H](N)C(=O)O; Orn = NCCC[C@H](N)C(=O)O

Test system: trypsin
Experiment: Trypsin digestion test (enzymatic resistance, HPLC)
Assay type: in vitro ADME
Details: for Resistance to trypsin digestion (in words): after 30 minutes; for remaining at 0.5 h, 0.4 mg/ml / remaining at 1 h, 0.4 mg/ml: isolated enzyme trypsin
Procedure: The compounds prepared were also tested for enzymatic resistance in the trypsin digestion test. […] Subsequently, a trypsin solution was added (100 μl; 0.02 mg/ml; Serva, 36 U/mg). […] An aliquot (500 μl) was withdrawn and diluted with 0.5 M acetic acid (1 ml), then lyophilized. The material obtained was analyzed by HPLC, using a Knauer system with an Eurospher 100 C18 (4.6×250 mm, 5 micron) column. The following solvent systems were used: A, 0.1% TFA in water; […]

[1] = trypsin, pH 8.5, 37° C., digestion time 30 min., read-out: % Unchanged compound
[2] = trypsin, pH 8.5, 37° C., digestion time 60 min., read-out: % Unchanged compound

SMILES | Resistance to trypsin digestion (in words) | remaining at 0.5 h, 0.4 mg/ml [1] [%] | remaining at 1 h, 0.4 mg/ml [2] [%] | remaining at 0.5 h, 0.4 mg/ml (pH 8.5) [%] | remaining at 1 h, 0.4 mg/ml (pH 8.5) [%]
CCCC[C@H](NC(=O)[C@@H](NC(=O)[C@H](CC(=O)O)NC(=O)[C@H](CCC(N)=O)NC(=O)[C@H](CC(C)C)NC(=O)[C@H](CC(C)C)NC(=O)[C@H](CCCN)NC(=O)[C@H](CCCCNC(=N)N)NC(=O)[C@H](C)NC(=O)[C@H](CO)NC(=O)[C@H](CC(C)C)NC(=O)[C@H](CCC(N)=O)NC(=O)[C@H](C)NC(=O)[C@H](CC(C)C)NC(=O)[C@@H](NC(=O)[C@H](CCCN)NC(=O)[C@H](CCCCNC(=N)N)NC(=O)[C@H](Cc1ccc(O)cc1)NC(=O)[C@H](CO)NC(=O)[C@H](CC(N)=O)NC(=O)[C@@H](NC(=O)[C@H](Cc1ccccc1)NC(=O)[C@@H](NC(=O)[C@H](C)NC(=O)[C@H](CC(=O)O)NC(=O)[C@H](C)NC(=O)CCc1ccc(O)cc1)[C@@H](C)CC)[C@@H](C)O)C(C)C)[C@@H](C)CC)C(=O)N[C@@H](CC(=O)O)C(=O)N[C@@H](CCCCNC(=N)N)C(N)=O [Compound 2, Dat-Ala-Asp-Ala-Ile-Phe-Thr-Asn-Ser-Tyr^10-hArg-Orn-Val-Leu-Ala-Gln-Leu-Ser-Ala-hArg^20-Orn-Leu-Leu-Gln-Asp-Ile-Nle-Asp-hArg^29-NH2] (Desaminotyrosyl-ADAIFTNSY[hArg][Orn]VLAQLSA[hArg][Orn]LLQDI[Nle]D[hArg]-NH2) | unchanged | > 99 | > 99 | – | –
CCCC[C@H](NC(=O)[C@@H](NC(=O)[C@H](CC(=O)O)NC(=O)[C@H](CCC(N)=O)NC(=O)[C@H](CC(C)C)NC(=O)[C@H](CC(C)C)NC(=O)[C@H](CCNC(=N)N)NC(=O)[C@H](CCNC(=N)N)NC(=O)[C@H](C)NC(=O)[C@H](CO)NC(=O)[C@H](CC(C)C)NC(=O)[C@H](CCC(N)=O)NC(=O)[C@H](C)NC(=O)[C@H](CC(C)C)NC(=O)[C@@H](NC(=O)[C@H](CCNC(=N)N)NC(=O)[C@H](CCNC(=N)N)NC(=O)[C@H](Cc1ccc(O)cc1)NC(=O)[C@H](CO)NC(=O)[C@H](CC(N)=O)NC(=O)[C@@H](NC(=O)[C@H](Cc1ccccc1)NC(=O)[C@@H](NC(=O)[C@H](C)NC(=O)[C@H](CC(=O)O)NC(=O)[C@H](C)NC(=O)CCc1ccc(O)cc1)[C@@H](C)CC)[C@@H](C)O)C(C)C)[C@@H](C)CC)C(=O)N[C@@H](CC(=O)O)C(=O)N[C@@H](CCNC(=N)N)C(N)=O [Compound 3, Dat-Ala-Asp-Ala-Ile-Phe-Thr-Asn-Ser-Tyr^10-Gab-Gab-Val-Leu-Ala-Gln-Leu-Ser-Ala-Gab-Gab-Leu-Leu-Gln-Asp-Ile-Nle-Asp-Gab-NH2] (Desaminotyrosyl-ADAIFTNSY[Agb][Agb]VLAQLSA[Agb][Agb]LLQDI[Nle]D[Agb]-NH2) | – | – | – | 86 | 72
CCCC[C@H](NC(=O)[C@@H](NC(=O)[C@H](CC(=O)O)NC(=O)[C@H](CCC(N)=O)NC(=O)[C@H](CC(C)C)NC(=O)[C@H](CC(C)C)NC(=O)[C@H](CCNC(=N)N)NC(=O)[C@H](CCNC(=N)N)NC(=O)[C@H](C)NC(=O)[C@H](CO)NC(=O)[C@H](CC(C)C)NC(=O)[C@H](CCC(N)=O)NC(=O)[C@H](C)NC(=O)[C@H](CC(C)C)NC(=O)[C@@H](NC(=O)[C@H](CCNC(=N)N)NC(=O)[C@H](CCCCNC(=N)N)NC(=O)[C@H](Cc1ccc(O)cc1)NC(=O)[C@H](CO)NC(=O)[C@H](CC(N)=O)NC(=O)[C@@H](NC(=O)[C@H](Cc1ccccc1)NC(=O)[C@@H](NC(=O)[C@H](C)NC(=O)[C@H](CC(=O)O)NC(=O)[C@H](C)NC(=O)CCc1ccc(O)cc1)[C@@H](C)CC)[C@@H](C)O)C(C)C)[C@@H](C)CC)C(=O)N[C@@H](CC(=O)O)C(=O)N[C@@H](CCNC(=N)N)C(N)=O [Compound 4, Dat-Ala-Asp-Ala-Ile-Phe-Thr-Asn-Ser-Tyr^10-hArg-Gab-Val-Leu-Ala-Gln-Leu-Ser-Ala-Gab-Gab-Leu-Leu-Gln-Asp-Ile-Nle-Asp-Gab-NH2] (Desaminotyrosyl-ADAIFTNSY[hArg][Agb]VLAQLSA[Agb][Agb]LLQDI[Nle]D[Agb]-NH2) | – | – | – | 82 | 67
CCCC[C@H](NC(=O)[C@@H](NC(=O)[C@H](CC(=O)O)NC(=O)[C@H](CCC(N)=O)NC(=O)[C@H](CC(C)C)NC(=O)[C@H](CC(C)C)NC(=O)[C@H](CCCCNC(=N)N)NC(=O)[C@H](CCCCNC(=N)N)NC(=O)[C@H](C)NC(=O)[C@H](CO)NC(=O)[C@H](CC(C)C)NC(=O)[C@H](CCC(N)=O)NC(=O)[C@H](C)NC(=O)[C@H](CC(C)C)NC(=O)[C@@H](NC(=O)[C@H](CCCCNC(=N)N)NC(=O)[C@H](CCNC(=N)N)NC(=O)[C@H](Cc1ccc(O)cc1)NC(=O)[C@H](CO)NC(=O)[C@H](CC(N)=O)NC(=O)[C@@H](NC(=O)[C@H](Cc1ccccc1)NC(=O)[C@@H](NC(=O)[C@H](C)NC(=O)[C@H](CC(=O)O)NC(=O)[C@H](C)NC(=O)CCc1ccc(O)cc1)[C@@H](C)CC)[C@@H](C)O)C(C)C)[C@@H](C)CC)C(=O)N[C@@H](CC(=O)O)C(=O)N[C@H](CCCNC(=N)N)C(N)=O [Compound 5, Dat-Ala-Asp-Ala-Ile-Phe-Thr-Asn-Ser-Tyr^10-Gab-hArg-Val-Leu-Ala-Gln-Leu-Ser-Ala-hArg-hArg-Leu-Leu-Gln-Asp-Ile-Nle-Asp-D-Arg-NH2] (Desaminotyrosyl-ADAIFTNSY[Agb][hArg]VLAQLSA[hArg][hArg]LLQDI[Nle]D[dR]-NH2) | – | 80 | 51 | – | –
CCCC[C@H](NC(=O)[C@@H](NC(=O)[C@H](CC(=O)O)NC(=O)[C@H](CCC(N)=O)NC(=O)[C@H](CC(C)C)NC(=O)[C@H](CC(C)C)NC(=O)[C@H](CCCCNC(=N)N)NC(=O)[C@H](CCCCNC(=N)N)NC(=O)[C@H](C)NC(=O)[C@H](CO)NC(=O)[C@H](CC(C)C)NC(=O)[C@H](CCC(N)=O)NC(=O)[C@H](C)NC(=O)[C@H](CC(C)C)NC(=O)[C@@H](NC(=O)[C@H](CCNC(=N)N)NC(=O)[C@H](CCCCNC(=N)N)NC(=O)[C@H](Cc1ccc(O)cc1)NC(=O)[C@H](CO)NC(=O)[C@H](CC(N)=O)NC(=O)[C@@H](NC(=O)[C@H](Cc1ccccc1)NC(=O)[C@@H](NC(=O)[C@H](C)NC(=O)[C@H](CC(=O)O)NC(=O)[C@H](C)NC(=O)CCc1ccc(O)cc1)[C@@H](C)CC)[C@@H](C)O)C(C)C)[C@@H](C)CC)C(=O)N[C@@H](CC(=O)O)C(=O)N[C@H](CCCNC(=N)N)C(N)=O [Compound 6, Dat-Ala-Asp-Ala-Ile-Phe-Thr-Asn-Ser-Tyr^10-hArg-Gab-Val-Leu-Ala-Gln-Leu-Ser-Ala-hArg-hArg-Leu-Leu-Gln-Asp-Ile-Nle-Asp-D-Arg-NH2] (Desaminotyrosyl-ADAIFTNSY[hArg][Agb]VLAQLSA[hArg][hArg]LLQDI[Nle]D[dR]-NH2) | – | – | – | 85 | 73
CCCC[C@H](NC(=O)[C@@H](NC(=O)[C@H](CC(=O)O)NC(=O)[C@H](CCC(N)=O)NC(=O)[C@H](CC(C)C)NC(=O)[C@H](CC(C)C)NC(=O)[C@H](CNC(=N)N)NC(=O)[C@H](CNC(=N)N)NC(=O)[C@H](C)NC(=O)[C@H](CO)NC(=O)[C@H](CC(C)C)NC(=O)[C@H](CCC(N)=O)NC(=O)[C@H](C)NC(=O)[C@H](CC(C)C)NC(=O)[C@@H](NC(=O)[C@H](CNC(=N)N)NC(=O)[C@H](CNC(=N)N)NC(=O)[C@H](Cc1ccc(O)cc1)NC(=O)[C@H](CO)NC(=O)[C@H](CC(N)=O)NC(=O)[C@@H](NC(=O)[C@H](Cc1ccccc1)NC(=O)[C@@H](NC(=O)[C@H](C)NC(=O)[C@H](CC(=O)O)NC(=O)[C@H](C)NC(=O)CCc1ccc(O)cc1)[C@@H](C)CC)[C@@H](C)O)C(C)C)[C@@H](C)CC)C(=O)N[C@@H](CC(=O)O)C(=O)N[C@@H](CNC(=N)N)C(N)=O [Compound 7, Dat-Ala-Asp-Ala-Ile-Phe-Thr-Asn-Ser-Tyr^10-Gap-Gap-Val-Leu-Ala-Gln-Leu-Ser-Ala-Gap-Gap-Leu-Leu-Gln-Asp-Ile-Nle-Asp-Gap-NH2] (Desaminotyrosyl-ADAIFTNSY[Agp][Agp]VLAQLSA[Agp][Agp]LLQDI[Nle]D[Agp]-NH2) | – | – | – | 75 | 68
CCCC[C@H](NC(=O)[C@@H](NC(=O)[C@H](CC(=O)O)NC(=O)[C@H](CCC(N)=O)NC(=O)[C@H](CC(C)C)NC(=O)[C@H](CC(C)C)NC(=O)[C@H](CNC(=N)N)NC(=O)[C@H](CCCCNC(=N)N)NC(=O)[C@H](C)NC(=O)[C@H](CO)NC(=O)[C@H](CC(C)C)NC(=O)[C@H](CCC(N)=O)NC(=O)[C@H](C)NC(=O)[C@H](CC(C)C)NC(=O)[C@@H](NC(=O)[C@H](CNC(=N)N)NC(=O)[C@H](CNC(=N)N)NC(=O)[C@H](Cc1ccc(O)cc1)NC(=O)[C@H](CO)NC(=O)[C@H](CC(N)=O)NC(=O)[C@@H](NC(=O)[C@H](Cc1ccccc1)NC(=O)[C@@H](NC(=O)[C@H](C)NC(=O)[C@H](CC(=O)O)NC(=O)[C@H](C)NC(=O)CCc1ccc(O)cc1)[C@@H](C)CC)[C@@H](C)O)C(C)C)[C@@H](C)CC)C(=O)N[C@@H](CC(=O)O)C(=O)N[C@@H](CNC(=N)N)C(N)=O [Compound 8, Dat-Ala-Asp-Ala-Ile-Phe-Thr-Asn-Ser-Tyr^10-Gap-Gap-Val-Leu-Ala-Gln-Leu-Ser-Ala-hArg-Gap-Leu-Leu-Gln-Asp-Ile-Nle-Asp-Gap-NH2] (Desaminotyrosyl-ADAIFTNSY[Agp][Agp]VLAQLSA[hArg][Agp]LLQDI[Nle]D[Agp]-NH2) | unchanged | > 99 | > 99 | – | –
